Test results reported in US6534491B2, “Preparation and use of ortho-sulfonamido bicyclic heteroaryl hydroxamic acids as matrix metalloproteinase and tace inhibitors” (priority 1996, dated 2003).
Read-outs that look alike come from different tables or passages of the source.

Key:
[1] = molecular target: TACE (Homo sapiens, UniProt P78536); experiment: TACE inhibition (fluorescent peptidyl substrate); format: biochemical; conditions: for inhibition at 1 µM: read-out: TACE % inhibition
Procedure: Using 96-well black microtiter plates, each well receives a solution composed of 10 μL TACE (final concentration 1 μg/mL), 70 μL Tris buffer, pH 7.4 containing 10% glycerol (final concentration 10 mM), and 10 μL of test compound solution in DMSO (final concentration 1 μl M, DMSO concentration <1%) and incubated for 10 minutes at room temperature.
The reaction is read (excitation 340 nm, emission 420 nm) for 10 min. and the increase in fluorescence over time is plotted as a linear line. The slope of the line is calculated and represents the reaction rate.
The linearity of the reaction rate is confirmed (r^2>0.85). The mean (x±sem) of the control rate is calculated and compared for statistical significance (p<0.05) with drug-treated rates using Dunnett's multiple comparison test.

[2] = molecular target: MMP-9 (Homo sapiens, UniProt P14780); experiment: MMP-9 inhibition (thiopeptide or fluorescent peptide substrate); format: biochemical
Sequence of MMP-9 (P14780 94-707): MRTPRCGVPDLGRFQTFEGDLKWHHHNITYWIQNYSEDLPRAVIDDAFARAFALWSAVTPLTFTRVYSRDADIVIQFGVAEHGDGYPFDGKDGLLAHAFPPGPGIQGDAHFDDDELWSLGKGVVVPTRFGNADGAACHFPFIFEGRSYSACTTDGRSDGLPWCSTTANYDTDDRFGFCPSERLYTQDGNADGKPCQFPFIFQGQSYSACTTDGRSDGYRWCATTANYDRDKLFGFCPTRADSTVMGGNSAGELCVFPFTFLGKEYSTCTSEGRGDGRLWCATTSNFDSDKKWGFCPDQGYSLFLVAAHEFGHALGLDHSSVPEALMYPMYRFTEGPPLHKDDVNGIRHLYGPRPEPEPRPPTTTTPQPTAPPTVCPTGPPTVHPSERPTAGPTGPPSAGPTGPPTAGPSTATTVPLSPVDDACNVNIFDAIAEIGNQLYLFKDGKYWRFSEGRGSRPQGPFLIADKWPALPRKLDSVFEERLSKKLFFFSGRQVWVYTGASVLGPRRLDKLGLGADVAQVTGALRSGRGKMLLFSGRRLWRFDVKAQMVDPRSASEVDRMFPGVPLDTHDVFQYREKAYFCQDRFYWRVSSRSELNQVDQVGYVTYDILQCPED
Procedure: (§1) The enzyme activity is measured by the rate of the color increase. The thiopeptide substrate is made up fresh as a 20 mM stock in 100% DMSO and the DTNB is dissolved in 100% DMSO as a 100 mM stock and stored in the dark at room temperature. Both the substrate and DTNB are diluted together to 1 mM with substrate buffer (50 mM HEPES pH 7.5, 5 mM CaCl2) before use. The stock of enzyme is diluted with buffer (50 mM HEPES, pH 7.5, 5 mM CaCl2, 0.02% Brij) to the desired final concentration.
(§2) Alternatively, a fluorescent peptide substrate is used. In this test procedure, the peptide substrate contains a fluorescent group and a quenching group. Upon cleavage of the substrate by an MMP, the fluorescence that is generated is quantitated on the fluorescence plate reader. The assay is run in HCBC assay buffer (50 mM HEPES, pH 7.0, 5 mM Ca^+2, 0.02% Brij, 0.5% Cysteine), with human recombinant MMP-1, MMP-9, or MMP-13. The substrate is dissolved in methanol and stored frozen in 1 mM aliquots. For the assay, substrate and enzymes are diluted in HCBC buffer to the desired concentrations. Compounds are added to the 96 well plate containing enzyme and the reaction is started by the addition of substrate.
(§3) For either the thiopeptide or fluorescent peptide test procedures, the slope of the line is calculated and represents the reaction rate. The linearity of the reaction rate is confirmed (r^2>0.85). The mean (x±sem) of the control rate is calculated and compared for statistical significance (p<0.05) with drug-treated rates using Dunnett's multiple comparison test.

[3] = molecular target: MMP-13 (Homo sapiens, UniProt P45452); experiment: MMP-13 inhibition (thiopeptide or fluorescent peptide substrate); format: biochemical
Procedure: as §1, §2, §3

[4] = molecular target: T1, MMP-1 (Homo sapiens, UniProt P03956); experiment: biochemical; conditions: MMP-1 IC50
T1 sequence (P03956 100-469): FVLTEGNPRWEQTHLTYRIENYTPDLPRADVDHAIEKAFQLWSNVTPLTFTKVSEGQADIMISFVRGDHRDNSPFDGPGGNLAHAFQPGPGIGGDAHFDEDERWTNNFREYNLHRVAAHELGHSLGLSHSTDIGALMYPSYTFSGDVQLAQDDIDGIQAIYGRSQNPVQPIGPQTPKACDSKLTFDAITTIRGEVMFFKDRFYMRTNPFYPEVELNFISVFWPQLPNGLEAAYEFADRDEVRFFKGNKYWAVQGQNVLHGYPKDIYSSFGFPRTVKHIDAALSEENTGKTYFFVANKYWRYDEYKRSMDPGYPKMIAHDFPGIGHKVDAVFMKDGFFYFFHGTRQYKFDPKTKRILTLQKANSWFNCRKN

Sequence of TACE (P78536 215-824): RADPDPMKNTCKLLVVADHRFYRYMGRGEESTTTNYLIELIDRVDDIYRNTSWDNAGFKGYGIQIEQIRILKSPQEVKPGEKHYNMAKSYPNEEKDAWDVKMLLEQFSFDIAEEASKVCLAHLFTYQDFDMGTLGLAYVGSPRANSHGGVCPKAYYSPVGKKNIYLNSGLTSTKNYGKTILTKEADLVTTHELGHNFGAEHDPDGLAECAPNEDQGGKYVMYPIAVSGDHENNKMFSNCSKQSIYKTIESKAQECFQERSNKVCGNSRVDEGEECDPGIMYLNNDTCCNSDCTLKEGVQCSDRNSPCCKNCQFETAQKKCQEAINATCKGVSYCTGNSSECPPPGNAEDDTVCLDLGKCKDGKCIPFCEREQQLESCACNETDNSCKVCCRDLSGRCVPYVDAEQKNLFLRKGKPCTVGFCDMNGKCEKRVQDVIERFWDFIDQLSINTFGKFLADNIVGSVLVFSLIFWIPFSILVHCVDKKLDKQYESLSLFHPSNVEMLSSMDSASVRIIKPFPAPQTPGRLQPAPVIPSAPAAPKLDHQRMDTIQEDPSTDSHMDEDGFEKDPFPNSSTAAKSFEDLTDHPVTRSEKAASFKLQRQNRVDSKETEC

Structure (SMILES)	inhibition at 1 µM [1]	IC50 ([2]; MMP-9 IC50)	IC50 [3]	IC50 [4]	IC50 ([2]; read-out: MMP-9 IC50)	IC50 [1]	inhibition at 1 µM ([1]; at 1 μM concentration)
Cc1nn(C)c2ncc(C(=O)NO)c(N(C)S(=O)(=O)c3ccc(Oc4ccncc4)cc3)c12 [91(HC1), 4-{Methyl-[4-(4-pyridinyloxy)benzenesulfonyl]amino}-1,3-dimethyl-1H-pyrazolo[3,4-b]pyridine-5-carboxylic Acid, Hydroxyamide]	38.7%	1.8 nM					
COc1ccc(S(=O)(=O)N(Cc2cccnc2)c2c(C(=O)NO)cnc3c2cnn3-c2ccccc2)cc1 [Example 63, 4-[(4-Methoxybenzenesulfonyl)pyridin-3-ylmethylamino]-1-phenyl-1H-pyrazolo[3,4-b]pyridine-5-carboxylic acid, hydroxyamide]			23 nM	721 nM	6.8 nM		
COc1ccc(S(=O)(=O)N(Cc2ccccc2)c2c(C(=O)NO)cnc3cc(C(F)(F)F)ccc23)cc1 [Example 11, 4-[Benzyl-(4-methoxy-benzenesulfonyl)-amino]-7-trifluoromethyl-quinoline-3-carboxylic acid hydroxyamide]			7 nM		11 nM	> 1000 nM	
COc1ccc(S(=O)(=O)N(Cc2cccnc2)c2c(C(=O)NO)cnc3c(I)cccc23)cc1 [Example 39, 4-[(4-Methoxy-benzenesulfonyl)-pyridin-3-ylmethyl-amino]-8-iodo-quinoline-3-carboxylic acid hydroxyamide]			2 nM		2 nM	53 nM	
COc1ccc(S(=O)(=O)N(Cc2ccccc2)c2c(C(=O)NO)cnc3cc(Br)ccc23)cc1 [Example 14, 4-[Benzyl-(4-methoxy-benzenesulfonyl)-amino]-7-bromo-quinoline-3-carboxylic acid hydroxyamide]			6 nM		8 nM		24%
O=C(NO)c1cnc2cc(C(F)(F)F)ccc2c1N(Cc1cccnc1)S(=O)(=O)c1ccc(-c2ccccc2)cc1 [Example 42, 4-[(Biphenyl-4-sulfonyl)-pyridin-3-ylmethyl-amino]-7-trifluoromethyl-quinoline-3-carboxylic acid hydroxyamide]				5200 nM	874 nM		
COc1ccc(S(=O)(=O)N(Cc2cccnc2)c2c(C(=O)NO)cnc3c2c(C)nn3-c2ccccc2)cc1 [Example 67, 4-[(4-Methoxybenzenesulfonyl)pyridin-3-ylmethylamino]-1phenyl-3-methyl-1H-pyrazolo[3,4-b]pyridine-5-carboxylic acid, hydroxyamide]				96 nM			
CCc1cccc2c(N(Cc3ccccc3)S(=O)(=O)c3ccc(OC)cc3)c(C(=O)NO)cnc12 [Example 19, 4-[Benzyl-(4-methoxybenzenesulfonyl)-amino]-8-ethyl-quinoline-3-carboxylic acid hydroxyamide]			4 nM		2 nM	314 nM	
COc1ccc(S(=O)(=O)N(Cc2ccccc2)c2c(C(=O)NO)cnc3ccc(C(F)(F)F)cc23)cc1 [Example 15, 4-[Benzyl-(4-methoxy-benzenesulfonyl)-amino]-6-trifluoromethyl-quinoline-3-carboxylic acid hydroxyamide]			12 nM		25 nM		7%
COc1ccc(S(=O)(=O)N(Cc2cccnc2)c2c(C(=O)NO)cnc3snc(C)c23)cc1 [Example 86, 4-[(4-Methoxybenzenesulfonyl)pyridin-3-ylmethylamino]-3-methylisothiazolo[5,4-b]pyridine-5-carboxylic Acid, Hydroxyamide]				131 nM	6.9 nM		
COc1ccc(S(=O)(=O)N(Cc2ccccc2)c2c(C(=O)NO)cnc3c(C)cccc23)cc1 [Example 18, 4-[Benzyl-(4-methoxybenzenesulfonyl)-amino]-8-methyl-quinoline-3-carboxylic acid hydroxyamide]			26 nM			627 nM	
